Calls of active or inactive are those of the source.
How the values were obtained:
[1] = molecular target: T1, Interleukin-8 (Homo sapiens, UniProt P10145); assay: Dose Response confirmation of uHTS small molecule hits for cystic fibrosis induced NFkb Inhibitors in a TNFa-induced IL8 counterscreen.; format: functional; details: read-out: IC50_Mean
T1 sequence (P10145 whole entry): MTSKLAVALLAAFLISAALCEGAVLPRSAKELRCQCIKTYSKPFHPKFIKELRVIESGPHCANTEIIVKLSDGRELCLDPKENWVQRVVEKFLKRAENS

[2] = molecular target: T1, Interleukin-8; assay: Dose Response confirmation of uHTS small molecule hits for cystic fibrosis induced NFkb Inhibitors in a PAF-induced IL8 counterscreen.; format: functional; details: read-out: IC50_Mean
[3] = molecular target: Adenosylmethionine-8-amino-7-oxononanoate aminotransferase (Mycobacterium tuberculosis, UniProt P9WQ81); assay: Mycobacterium tuberculosis BioA enzyme inhibitor Measured in Biochemical System Using Plate Reader - 2163-02_Inhibitor_Dose_CherryPick_Activity.; format: functional, Mycobacterium tuberculosis UT205
[4] = molecular target: T2, Corticotropin-releasing factor receptor 2/Corticotropin-releasing factor-binding protein (Homo sapiens, UniProt P24387+Q13324); assay: activators of CRF receptor 2 with binding protein – uHTS hits, confirmation (AID 602473); format: functional; details: read-out: EC50_Mean
T2 sequence (Q13324 whole entry): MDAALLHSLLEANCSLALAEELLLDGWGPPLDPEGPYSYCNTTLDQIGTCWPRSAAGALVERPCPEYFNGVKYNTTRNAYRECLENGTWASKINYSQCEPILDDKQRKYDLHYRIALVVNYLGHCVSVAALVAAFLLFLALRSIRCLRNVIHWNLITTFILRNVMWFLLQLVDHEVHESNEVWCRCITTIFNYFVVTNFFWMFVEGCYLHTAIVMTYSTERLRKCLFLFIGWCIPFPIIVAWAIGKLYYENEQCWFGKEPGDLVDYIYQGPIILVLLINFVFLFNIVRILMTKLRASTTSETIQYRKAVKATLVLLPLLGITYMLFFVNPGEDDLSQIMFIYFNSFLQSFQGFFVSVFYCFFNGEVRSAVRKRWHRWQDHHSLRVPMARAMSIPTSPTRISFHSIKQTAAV
T2 sequence (P24387 whole entry): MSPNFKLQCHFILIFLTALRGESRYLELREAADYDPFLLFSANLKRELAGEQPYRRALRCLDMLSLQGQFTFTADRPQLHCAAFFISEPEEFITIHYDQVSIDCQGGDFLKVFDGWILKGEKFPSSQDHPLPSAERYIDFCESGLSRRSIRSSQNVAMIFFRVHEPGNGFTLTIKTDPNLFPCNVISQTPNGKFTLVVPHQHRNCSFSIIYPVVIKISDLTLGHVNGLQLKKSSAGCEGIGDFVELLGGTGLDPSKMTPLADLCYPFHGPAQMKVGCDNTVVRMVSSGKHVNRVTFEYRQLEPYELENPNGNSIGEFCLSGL

[5] = molecular target: T2, Corticotropin-releasing factor receptor 2/Corticotropin-releasing factor-binding protein; assay: Dose Response confirmation of uHTS hits for small molecule antagonists of the CRF-binding protein and CRF-R2 receptor complex.; format: functional; details: read-out: IC50_Mean
[6] = blockers of CRF-binding protein–CRF-R2 complex – cell-based, uHTS hits, 384-well, dose response (AID 651639); format: functional, Homo sapiens; details: read-out: IC50_Mean
[7] = molecular target: T3, Rac GTPase-activating protein 1 (Homo sapiens, UniProt Q9H0H5); assay: blockers of MgcRacGAP-driven Rac1 GTP hydrolysis – biochemical, ADP Hunter fluorescence, primary and confirmatory, confirmation (AID 624330); format: functional
T3 sequence (Q9H0H5 whole entry): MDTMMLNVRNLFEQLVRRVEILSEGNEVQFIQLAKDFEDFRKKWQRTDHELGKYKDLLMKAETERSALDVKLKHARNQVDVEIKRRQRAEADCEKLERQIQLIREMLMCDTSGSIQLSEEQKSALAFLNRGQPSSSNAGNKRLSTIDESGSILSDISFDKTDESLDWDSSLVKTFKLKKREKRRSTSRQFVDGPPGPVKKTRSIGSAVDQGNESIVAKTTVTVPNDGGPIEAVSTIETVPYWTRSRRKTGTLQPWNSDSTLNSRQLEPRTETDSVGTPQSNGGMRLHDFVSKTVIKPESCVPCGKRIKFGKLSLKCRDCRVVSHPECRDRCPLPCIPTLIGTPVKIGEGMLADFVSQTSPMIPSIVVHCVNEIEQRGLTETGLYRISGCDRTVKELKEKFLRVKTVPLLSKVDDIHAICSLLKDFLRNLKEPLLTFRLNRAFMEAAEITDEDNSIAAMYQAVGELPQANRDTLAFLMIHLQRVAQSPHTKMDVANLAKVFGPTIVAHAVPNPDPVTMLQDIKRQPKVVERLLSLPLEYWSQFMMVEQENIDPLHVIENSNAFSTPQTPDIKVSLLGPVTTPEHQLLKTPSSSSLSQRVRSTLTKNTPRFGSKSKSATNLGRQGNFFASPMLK

[8] = viability loss in HeLa cells – cytotoxicity control for MgcRacGAP inhibitor project, dose response (AID 624300); format: functional
[9] = Trypanosoma cruzi growth suppression in host cells – NIH3T3 host cells, beta-gal luminescence, confirmation (AID 2044); format: functional, cell-based;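 further: intracellular parasites grown in NIH/3T3 mouse fibroblasts as host cells; luminescent beta-galactosidase reporter signal from transgenic T. cruzi replicating inside host cells; inhibitors lower the luminescence signal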
[10] = NIH3T3 cell viability loss – ATP luminescence, mouse fibroblasts, counter-screen, dose response (AID 2010); format: functional, cell-based;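 further: cells exposed to compound for about 90 hours before reading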
[11] = molecular target: T4, High affinity choline transporter 1 (Homo sapiens, UniProt Q9GZV3); assay: human choline transporter blockers, potency – cell-based, 5-point CRC, membrane potential dye, dose response (AID 504840); format: functional
T4 sequence (Q9GZV3 whole entry): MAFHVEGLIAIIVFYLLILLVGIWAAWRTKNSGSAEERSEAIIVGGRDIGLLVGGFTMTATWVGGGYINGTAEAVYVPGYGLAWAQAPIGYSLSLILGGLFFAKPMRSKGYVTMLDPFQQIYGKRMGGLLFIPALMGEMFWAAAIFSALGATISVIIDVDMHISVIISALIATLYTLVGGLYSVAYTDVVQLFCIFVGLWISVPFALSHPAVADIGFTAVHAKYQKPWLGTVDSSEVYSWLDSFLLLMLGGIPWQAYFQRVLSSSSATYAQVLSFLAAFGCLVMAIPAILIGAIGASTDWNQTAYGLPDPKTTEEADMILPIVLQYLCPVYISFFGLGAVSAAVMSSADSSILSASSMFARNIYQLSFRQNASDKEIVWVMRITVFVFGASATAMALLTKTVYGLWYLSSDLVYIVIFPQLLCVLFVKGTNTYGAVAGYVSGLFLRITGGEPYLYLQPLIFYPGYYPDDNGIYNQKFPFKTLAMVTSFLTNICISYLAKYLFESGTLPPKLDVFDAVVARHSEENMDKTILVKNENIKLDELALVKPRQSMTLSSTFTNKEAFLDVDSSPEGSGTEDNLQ

[12] = Luminescence Cell-Based Dose Retest to Confirm Inhibitors of Cancer Stem Cells. [Related pubchem assays (depositor defined):AID2717, AID2721]; format: functional; details: Homo sapiens
[13] = molecular target: ATP-dependent translocase ABCB1 (Homo sapiens, UniProt P08183); assay: inhibition of P-gp mediated JC-1 efflux – Jurkat-DNR cells, flow cytometry, dose response (AID 1689); format: functional
[14] = molecular target: Broad substrate specificity ATP-binding cassette transporter ABCG2 (Homo sapiens, UniProt Q9UNQ0); assay: blockers of JC-1 export by ABCG2 – Ig-MXP3 cells, flow cytometry, dose response (AID 1690); format: functional
[15] = cells; format: functional, cell-based; details: HEK-CNG
[16] = molecular target: Galanin receptor type 3 (Homo sapiens, UniProt O60755); assay: Fluorescence-based cell-based primary high throughput dose response assay to identify antagonists of the Galanin Receptor 3 (GalR3).; format: functional
[17] = molecular target: T5, Orexin receptor type 2 (Homo sapiens, UniProt O43614); assay: Counterscreen assay for antagonists of the orexin 1 receptor (OX1R; HCRTR1): Fluorescence-based cell-based dose response assay for antagonists of the orexin 2 receptor (OX2R; HCRTR2), run by assay provider.; format: functional
T5 sequence (O43614 whole entry): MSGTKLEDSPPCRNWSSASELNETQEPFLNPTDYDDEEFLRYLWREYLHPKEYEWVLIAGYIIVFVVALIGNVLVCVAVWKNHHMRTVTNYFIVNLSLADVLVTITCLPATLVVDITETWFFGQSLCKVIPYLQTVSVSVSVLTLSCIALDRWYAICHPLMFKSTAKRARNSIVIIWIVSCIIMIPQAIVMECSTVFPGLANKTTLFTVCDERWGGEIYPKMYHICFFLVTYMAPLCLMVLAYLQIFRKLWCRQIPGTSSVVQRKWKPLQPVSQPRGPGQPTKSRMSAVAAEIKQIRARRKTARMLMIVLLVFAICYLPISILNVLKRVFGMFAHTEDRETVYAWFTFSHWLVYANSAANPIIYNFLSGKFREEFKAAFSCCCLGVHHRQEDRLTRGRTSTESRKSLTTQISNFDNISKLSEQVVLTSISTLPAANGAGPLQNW

[18] = molecular target: T6, Orexin/Hypocretin receptor type 1 (Homo sapiens, UniProt O43613); assay: Homogeneous Time Resolved Fluorescence (HTRF)-based cell-based high throughput dose response assay for antagonists of the orexin 1 receptor (OX1R; HCRTR1). [Related pubchem assays (depositor defined):AID434989, AID435008, AID463079, AID485270, AID492963, AID492964, AID492965, AID493232, AID504717, AID504718]; format: functional
T6 sequence (O43613 whole entry): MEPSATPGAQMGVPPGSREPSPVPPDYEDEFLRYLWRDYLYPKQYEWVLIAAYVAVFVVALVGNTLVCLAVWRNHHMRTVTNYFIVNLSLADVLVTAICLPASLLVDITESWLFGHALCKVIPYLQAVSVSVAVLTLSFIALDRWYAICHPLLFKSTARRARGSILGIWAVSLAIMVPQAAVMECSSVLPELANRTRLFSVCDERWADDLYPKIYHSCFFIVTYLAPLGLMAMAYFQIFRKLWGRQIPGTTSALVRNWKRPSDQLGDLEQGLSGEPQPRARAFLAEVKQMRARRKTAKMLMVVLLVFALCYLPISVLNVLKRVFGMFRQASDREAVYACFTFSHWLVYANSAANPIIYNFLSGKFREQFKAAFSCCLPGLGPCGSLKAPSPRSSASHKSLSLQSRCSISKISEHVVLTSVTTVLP

[19] = test system: CHO-K1; assay: Counterscreen for antagonists of the orexin 1 receptor (OX1R; HCRTR1): Homogeneous time resolved fluorescence (HTRF)-based cell-based dose response assay to identify antagonists of the parental CHO-K1 cell line. [Related pubchem assays (depositor defined):AID434989, AID435008, AID463079, AID485270, AID492963, AID492964, AID492965, AID493232, AID504699, AID504701]; format: functional; details: Cricetulus griseus;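 further: potency for inhibition of ATP-stimulated IP1 production as antagonists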
[20] = Counterscreen for antagonists of the orexin 1 receptor (OX1R; HCRTR1): Fluorescence-based cell-based high throughput dose response assay to identify antagonists of the parental CHO cell line. [Related pubchem assays (depositor defined):AID434989, AID435008, AID463079, AID485270, AID492963, AID492964, AID492965, AID493232, AID504699, AID504701]; format: functional
[21] = molecular target: T6, Orexin/Hypocretin receptor type 1; assay: Fluorescence-based cell-based high throughput dose response assay for antagonists of the orexin 1 receptor (OX1R; HCRTR1). [Related pubchem assays (depositor defined):AID434989, AID435008, AID463079, AID485270, AID492963, AID492964, AID492965, AID493232, AID504717, AID504718]; format: functional
[22] = molecular target: T5, Orexin receptor type 2; assay: Counterscreen assay for antagonists of the orexin 1 receptor (OX1R; HCRTR1): Homogeneous Time Resolved Fluorescence (HTRF)-based cell-based dose response assay for antagonists of the orexin 2 receptor (OX2R; HCRTR2), run by assay provider.; format: functional

Sequence of ATP-dependent translocase ABCB1 (P08183 whole entry): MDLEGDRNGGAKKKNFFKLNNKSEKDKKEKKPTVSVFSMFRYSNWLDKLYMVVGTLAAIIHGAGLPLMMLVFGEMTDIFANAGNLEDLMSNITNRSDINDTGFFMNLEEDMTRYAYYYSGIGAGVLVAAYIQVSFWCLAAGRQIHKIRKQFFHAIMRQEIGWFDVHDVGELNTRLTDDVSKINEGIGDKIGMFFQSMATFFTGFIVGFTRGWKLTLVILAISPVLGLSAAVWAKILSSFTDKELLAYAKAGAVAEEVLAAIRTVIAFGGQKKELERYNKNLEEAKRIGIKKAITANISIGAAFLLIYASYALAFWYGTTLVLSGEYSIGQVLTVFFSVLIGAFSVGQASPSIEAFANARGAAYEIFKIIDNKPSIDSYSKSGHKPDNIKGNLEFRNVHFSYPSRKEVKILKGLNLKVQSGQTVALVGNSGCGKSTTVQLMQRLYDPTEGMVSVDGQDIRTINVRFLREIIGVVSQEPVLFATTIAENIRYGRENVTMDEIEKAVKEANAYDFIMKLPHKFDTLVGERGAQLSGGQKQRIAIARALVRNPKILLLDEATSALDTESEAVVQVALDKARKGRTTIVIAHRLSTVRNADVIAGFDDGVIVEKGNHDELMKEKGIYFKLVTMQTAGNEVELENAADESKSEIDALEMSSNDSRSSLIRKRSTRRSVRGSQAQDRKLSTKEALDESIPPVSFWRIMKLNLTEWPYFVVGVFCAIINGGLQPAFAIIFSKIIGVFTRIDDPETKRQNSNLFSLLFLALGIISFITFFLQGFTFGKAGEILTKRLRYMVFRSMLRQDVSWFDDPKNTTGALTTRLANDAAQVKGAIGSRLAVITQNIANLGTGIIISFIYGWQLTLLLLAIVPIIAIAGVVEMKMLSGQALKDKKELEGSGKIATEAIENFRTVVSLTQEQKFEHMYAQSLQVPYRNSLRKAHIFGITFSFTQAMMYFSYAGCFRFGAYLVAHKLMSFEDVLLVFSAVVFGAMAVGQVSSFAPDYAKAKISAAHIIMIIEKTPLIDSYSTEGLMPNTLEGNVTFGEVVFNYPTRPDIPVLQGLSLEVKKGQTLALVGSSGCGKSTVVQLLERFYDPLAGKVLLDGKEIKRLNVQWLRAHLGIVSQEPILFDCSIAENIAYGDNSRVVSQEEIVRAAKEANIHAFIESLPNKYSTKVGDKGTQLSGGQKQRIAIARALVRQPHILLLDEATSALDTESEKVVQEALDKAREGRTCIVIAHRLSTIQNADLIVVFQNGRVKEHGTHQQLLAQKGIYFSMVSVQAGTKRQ
Sequence of Broad substrate specificity ATP-binding cassette transporter ABCG2 (Q9UNQ0 whole entry): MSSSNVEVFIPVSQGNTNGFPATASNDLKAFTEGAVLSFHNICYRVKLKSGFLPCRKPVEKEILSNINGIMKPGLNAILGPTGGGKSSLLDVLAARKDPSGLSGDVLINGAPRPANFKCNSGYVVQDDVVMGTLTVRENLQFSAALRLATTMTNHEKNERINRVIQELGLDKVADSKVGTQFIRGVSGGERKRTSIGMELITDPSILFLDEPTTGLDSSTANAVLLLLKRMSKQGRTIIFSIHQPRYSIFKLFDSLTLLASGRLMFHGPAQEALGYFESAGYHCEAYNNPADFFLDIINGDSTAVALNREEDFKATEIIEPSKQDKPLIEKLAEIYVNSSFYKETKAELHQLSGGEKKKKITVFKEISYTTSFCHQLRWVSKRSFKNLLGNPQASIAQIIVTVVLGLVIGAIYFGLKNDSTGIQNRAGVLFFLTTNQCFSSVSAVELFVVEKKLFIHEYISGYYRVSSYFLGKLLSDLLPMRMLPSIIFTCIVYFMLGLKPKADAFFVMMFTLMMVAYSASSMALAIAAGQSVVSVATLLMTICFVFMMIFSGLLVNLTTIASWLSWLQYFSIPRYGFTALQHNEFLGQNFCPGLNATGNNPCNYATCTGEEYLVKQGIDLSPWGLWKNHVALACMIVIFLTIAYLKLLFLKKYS
Sequence of Adenosylmethionine-8-amino-7-oxononanoate aminotransferase (P9WQ81 whole entry): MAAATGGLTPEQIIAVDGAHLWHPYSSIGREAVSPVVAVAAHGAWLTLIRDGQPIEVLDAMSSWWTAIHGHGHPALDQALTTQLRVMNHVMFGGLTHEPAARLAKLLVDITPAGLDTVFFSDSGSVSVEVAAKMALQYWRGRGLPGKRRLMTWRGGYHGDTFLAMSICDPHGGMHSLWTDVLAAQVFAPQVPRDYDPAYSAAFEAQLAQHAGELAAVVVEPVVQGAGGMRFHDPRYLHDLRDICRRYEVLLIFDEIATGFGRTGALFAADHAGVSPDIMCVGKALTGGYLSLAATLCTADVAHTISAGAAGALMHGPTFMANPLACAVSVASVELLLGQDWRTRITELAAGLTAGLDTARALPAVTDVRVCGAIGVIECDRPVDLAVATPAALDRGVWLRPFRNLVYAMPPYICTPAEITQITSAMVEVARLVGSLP
Sequence of Galanin receptor type 3 (O60755 whole entry): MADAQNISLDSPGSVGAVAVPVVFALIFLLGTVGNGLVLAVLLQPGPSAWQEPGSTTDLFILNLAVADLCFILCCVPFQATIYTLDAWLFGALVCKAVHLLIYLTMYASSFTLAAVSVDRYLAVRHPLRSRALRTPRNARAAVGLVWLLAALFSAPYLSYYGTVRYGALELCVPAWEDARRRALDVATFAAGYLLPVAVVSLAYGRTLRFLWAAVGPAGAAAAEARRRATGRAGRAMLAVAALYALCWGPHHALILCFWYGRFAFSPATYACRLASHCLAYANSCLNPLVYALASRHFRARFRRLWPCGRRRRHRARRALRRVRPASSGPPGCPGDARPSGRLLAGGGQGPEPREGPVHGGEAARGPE

Structure (SMILES): CCn1c(Oc2ccccc2F)nc2c1c(=O)n(C)c(=O)n2C
- IC50 [1]: 4.08 µM (active)
- IC50 [2]: 21 µM (inactive)

Structure (SMILES): COCCN1C(=O)c2ccc(C(=O)Nc3cccnc3)cc2C1=O
- AC50 [3]: 4.26 µM (active)

Structure (SMILES): CC(=O)c1cccc(NC(=O)Nc2cccnc2)c1
- IC50 [1]: 43.8 µM (inactive)
- IC50 [2]: 45.7 µM (inactive)

Structure (SMILES): Cc1ccc(CSCC(=O)Nc2cc(S(=O)(=O)N3CCOCC3)ccc2OC(C)C)cc1
- EC50 [4]: > 53 µM (inactive)
- IC50 [5]: < 0.368 µM (active)
- IC50 [6]: > 20 µM (inactive)

Structure (SMILES): CCOCCCNC(=O)/C(C#N)=C/c1ccc([N+](=O)[O-])o1
- IC50 [7]: 149 µM (active)
- CC50 [8]: 96.6 µM (active)
- EC50 [9]: 3.08 µM (active)
- EC50 [10]: 4.2 µM (active)
- IC50 [11]: 4.79 µM (active)
- AC50 [12]: 5.62 µM (active)

Structure (SMILES): Cc1cc(C(=O)N2CCN(c3ccc([N+](=O)[O-])cc3)CC2)co1
- EC50 [4]: > 53 µM (inactive)
- IC50 [5]: 36.1 µM (active)
- IC50 [6]: > 20 µM (inactive)

Structure (SMILES): Cc1cc(C)n(-c2ccc(Cl)c(C(=O)Nc3cc(C(F)(F)F)ccc3Cl)n2)n1
- EC50 [13]: 5.21 µM (inactive)
- EC50 [14]: 0.24 µM (inactive)

Structure (SMILES): COc1ccc(C(=O)CSc2nnc(Cn3cnc4ccccc43)o2)cc1
- EC50 [15]: > 29.9 µM (inactive)
- IC50 [16]: 0.891 µM (active)

Structure (SMILES): COc1cc2nc(S)nc(NCCc3ccc(S(N)(=O)=O)cc3)c2cc1OC
- CC50 [8]: 100 µM (active)

Structure (SMILES): CCN(CC)P(=O)(Nc1cccc(C(F)(F)F)c1)c1ccc(N(C)C)cc1NC(=O)c1ccco1 (configuration not stated)
- IC50 [17]: 5 µM (active)
- EC50 [9]: 1.3 µM (active)
- IC50 [18]: 0.184 µM (active)
- IC50 [19]: > 66.2 µM (inactive)
- IC50 [20]: > 49.8 µM (inactive)
- EC50 [13]: 0.998 µM (active)
- EC50 [10]: > 30 µM (not active)
- IC50 [21]: 2.29 µM (active)
- EC50 [14]: 2.29 µM (active)
- IC50 [22]: > 50 µM (inactive)

— ChEMBL document CHEMBL1201862, “PubChem BioAssay data set” (2004)
